The values that follow come from patent US20250114337A1, “METHODS FOR VASCULAR REGENERATION AND WOUND TREATMENT” (THE METHODIST HOSPITAL, priority 2022, published 2025).

For one assay, the system named is H3.3 deposition. In words: H3.3-SNAP tagging, quench-chase-pulse TMR-Star labeling. In kind it is cell-based. The settings on record: Poly I:C + OSMI. From the text: To identify the role of O-GlcNAcylation of histone variant h3.3 chaperone protein, HIRA, on transdifferentiation. The effects of O-GlcNAcylation on proteins that may be involved in the epigenetic regulation of transdifferentiation can be assessed. Nucleosome turnover is known to be tightly interrelated with DNA accessibility, and histone variant h3.3 is a hallmark of regulatory regions in the mammalian genome and is required to establish open chromatins. HIRA is the chaperone for h3.3, it forms a complex with other subunits, including ASF1. UBN, and CABIN, and is responsible for h3.3 deposition on the chromatin. OGT interacts with and O-GlcNAcylates HIRA, both of which are critical for the formation of the HIRA-h3.3 complex and h3.3 deposition and its dependent gene activation. […] The role of HIRA in transdifferentiation with fibroblasts that have HIRA knocked down or overexpressed can be determined. […] Thereafter, the de novo deposited SNAP-h3.3 will be pulse-labeled with the TMR-Star, which is a readily detectable and quantifiable red-fluorescent substrate. […]
To test whether innate immune activation enhances the H3.3 deposition in the chromatin, the H3.3-SNAP tagging system was generated where the newly synthesized H3.3 will be detected by fluorescent TMR-Star labeling with quench-chase-pulse strategy.

The test system of another assay is BJ fibroblasts. In words: in vitro transdifferentiation of fibroblasts to induced endothelial cells (iECs). It is filed as cell-based, human. The conditions noted are these: fibroblasts exposed during transdifferentiation protocol. The text has this:
Innate immune activation is required for transdifferentiation. […] 131 (3): p. 300-9). iECs generated from this protocol manifest high fidelity for endothelial lineage. They incorporate acetylated LDL (FIG. 2B), form tubular networks (FIG. 2C), have similar transcriptomes as genuine endothelial cells, and increase capillary density and perfusion when injected into the ischemic hindlimb of the mouse (FIG. 2D) (Sayed, N., et al., Circulation, 2015. 131 (3): p. 300-9). This protocol can be utilized to study the role of O-GlcNAcylation in transdifferentiation in vitro.
O-GlcNAcylation is required for in vitro transdifferentiation. To define if the elevation of O-GlcNAcylation is required for transdifferentiation, fibroblasts were exposed to Thiamet G (TMG) (an OGA inhibitor that enhances O-GlcNAcylation) or DON (an inhibitor for GFAT that acts upstream in the hexosamine biosynthesis pathway and reduces O-GlcNAcylation). The number of iECs generated during transdifferentiation is increased when fibroblasts are exposed to TMG and decreased when exposed to DON (FIG. 5A). […] The role of O-GlcNAcylation of specific epigenetic regulars e.g., HIRA during transdifferentiation can also be addressed.
To define if the elevation of O-GlcNAcylation is required for transdifferentiation, inhibitors of O-GlcNAcylation including OSMI (an inhibitor for OGT) and DON (an inhibitor for GFAT that acts upstream in the hexosamine biosynthesis pathway and reduces O-GlcNAcylation) or an activator of O-GlcNAcylation. Thiamet G (TMG) (an OGA inhibitor that enhances O-GlcNAcylation), were delivered to BJ fibroblasts undergoing transdifferentiation. The number of CD31 expressing iECs generated during transdifferentiation decreases when exposed to OSMI or DON and increases when fibroblasts are exposed to TMG (FIG. 17B). Then OGT or OGA were knocked down using shRNA in the BJ fibroblasts (FIG. 17C) and performed transdifferentiation protocol in vitro.

Molecules are shown by their SMILES. “Also recorded” adds a separate entry of the source.

`CCOC(=O)CN(Cc1cccs1)C(=O)[C@H](NS(=O)(=O)c1cc2ccc(=O)[nH]c2cc1Cl)c1ccccc1OC` [OSMI]: in the assay on H3.3 deposition, the “Poly I:C-enhanced H3.3 deposition” value was “impaired”. For the same molecule, the “iEC yield (number of CD31 expressing iECs generated during transdifferentiation)” value in the assay on BJ fibroblasts is recorded as “decreases; also recorded: impair”.
